Reference: ChEMBL document CHEMBL1201862, “PubChem BioAssay data set” (2004)
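Where inhibition never reached the appropriate level, the endpoint shown equals the highest concentration tested. Otherwise, values were interpolated linearly from a five-concentration, 48-hour dose response in 96-well plates. GI50: concentration for 50% inhibition of growth.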 The source made the active and inactive calls. No stated cut-off is given here; in the data, active = GI50 up to about 1.1 µM and inactive = higher. Non-standard residues stand in square brackets, D forms with d. Residues, ends and D or L forms follow the SMILES beside them. *: point of attachment. Phe(4-NO2) = N[CH](Cc1ccc([N+](=O)[O-])cc1)C(=O)O; Boc = CC(C)(C)OC(=O)*

Legend:
Test in all cases: NCI tumour cell line growth inhibition, 48 h
HCT-116 = system: HCT-116
HCT-15 = system: HCT-15
HL-60 = system: HL-60
IGROV-1 = system: IGROV-1
K562 = system: K562
M14 = system: M14
MDA-MB-435 = system: MDA-MB-435
NCI-H23 = system: NCI-H23
NCI/ADR-RES = system: NCI/ADR-RES
RPMI-8226 = system: RPMI-8226
SF-268 = system: SF-268
SK-MEL-28 = system: SK-MEL-28
SN12C = system: SN12C
SW-620 = system: SW-620
T47D = system: T47D
UACC-257 = system: UACC-257
SNB-75 = system: SNB-75
TK-10 = system: TK-10

| Compound | GI50 (HCT-116) | GI50 (HCT-15) [µM] | GI50 (HL-60) | GI50 (IGROV-1) | GI50 (K562) | GI50 (M14) | GI50 (MDA-MB-435) | GI50 (NCI-H23) | GI50 (NCI/ADR-RES) | GI50 (RPMI-8226) | GI50 (SF-268) | GI50 (SK-MEL-28) | GI50 (SN12C) | GI50 (SW-620) | GI50 (T47D) | GI50 (UACC-257) | GI50 (SNB-75) | GI50 (TK-10) |
| --- | --- | --- | --- | --- | --- | --- | --- | --- | --- | --- | --- | --- | --- | --- | --- | --- | --- | --- |
| O=C(/C=C/c1ccc(O)c(O)c1)OCCCc1ccccc1 | 10.6 µM (inactive) | 3.9 | 1.07 µM (active) | 3.34 µM (inactive) | 21.3 µM (inactive) | 7.78 µM (inactive) | 9.44 µM (inactive) | 13.2 µM (inactive) | 8.39 µM (inactive) | 13.1 µM (inactive) | 10.2 µM (inactive) | 15.3 µM (inactive) | 11.9 µM (inactive) | 12.6 µM (inactive) | 16.4 µM (inactive) | 34.1 µM (inactive) | – | – |
| N/C(=N\c1ccc(Cl)cc1)NS(=O)(=O)c1c(C(F)(F)F)cccc1C(F)(F)F | 10 µM (inactive) | 17 | 20 µM (inactive) | 16.6 µM (inactive) | > 100 µM (inactive) | 26.3 µM (inactive) | – | 5.58 µM (inactive) | 12.2 µM (inactive) | > 100 µM (inactive) | 23.3 µM (inactive) | 62.5 µM (inactive) | 16.1 µM (inactive) | 33.3 µM (inactive) | 12.5 µM (inactive) | 18.6 µM (inactive) | 41.8 µM (inactive) | 24 µM (inactive) |
| CC(=O)NNc1nc(C)c(C(=O)/C=C/c2ccc(NC(C)=O)cc2)s1 | – | > 100 | > 100 µM (inactive) | > 100 µM (inactive) | > 100 µM (inactive) | – | – | > 100 µM (inactive) | – | > 100 µM (inactive) | > 100 µM (inactive) | > 100 µM (inactive) | > 100 µM (inactive) | > 100 µM (inactive) | – | 98.6 µM (inactive) | > 100 µM (inactive) | > 100 µM (inactive) |
| S=C(Nc1ccc2c(c1)oc1ccccc12)c1cccs1 | > 100 µM (inactive) | > 100 | > 100 µM (inactive) | 37.1 µM (inactive) | – | > 100 µM (inactive) | > 100 µM (inactive) | > 100 µM (inactive) | > 100 µM (inactive) | – | 38.1 µM (inactive) | > 100 µM (inactive) | > 100 µM (inactive) | > 100 µM (inactive) | 3.37 µM (inactive) | > 100 µM (inactive) | – | > 100 µM (inactive) |
| OC1NC2Nc3ccccc3NC2NC1O (centres undefined) | > 100 µM (inactive) | > 100 | > 100 µM (inactive) | > 100 µM (inactive) | > 100 µM (inactive) | > 100 µM (inactive) | > 100 µM (inactive) | > 100 µM (inactive) | > 100 µM (inactive) | – | > 100 µM (inactive) | > 100 µM (inactive) | > 100 µM (inactive) | > 100 µM (inactive) | > 100 µM (inactive) | > 100 µM (inactive) | > 100 µM (inactive) | > 100 µM (inactive) |
| CCOP(=O)(OCC)[C@]12C[C@@H](C)C=C[C@H]1COC2=O | > 100 µM (inactive) | – | – | – | > 100 µM (inactive) | > 100 µM (inactive) | > 100 µM (inactive) | > 100 µM (inactive) | – | > 100 µM (inactive) | > 100 µM (inactive) | > 100 µM (inactive) | > 100 µM (inactive) | > 100 µM (inactive) | > 100 µM (inactive) | > 100 µM (inactive) | > 100 µM (inactive) | > 100 µM (inactive) |
| COc1cc(/C=C2/SC(c3ccccc3)N(Cc3ccccc3)C2=O)cc(OC)c1OC (centres undefined) | 14.9 µM (inactive) | 38.7 | – | – | 16.4 µM (inactive) | 75.3 µM (inactive) | 53.2 µM (inactive) | 31.6 µM (inactive) | 35 µM (inactive) | 14.4 µM (inactive) | 48.1 µM (inactive) | 47.1 µM (inactive) | 21.5 µM (inactive) | 63.2 µM (inactive) | 27.2 µM (inactive) | 33.7 µM (inactive) | – | 53 µM (inactive) |
| CCN(CC)C(=S)N/N=C/c1cc([N+](=O)[O-])ccc1O | 2.75 µM (inactive) | 3.62 | 1.69 µM (inactive) | 3.65 µM (inactive) | 3.18 µM (inactive) | 4.17 µM (inactive) | 5.48 µM (inactive) | 6.59 µM (inactive) | 3.01 µM (inactive) | – | 3.66 µM (inactive) | 5.11 µM (inactive) | 4.88 µM (inactive) | 6.35 µM (inactive) | 5.13 µM (inactive) | 8.53 µM (inactive) | 9.27 µM (inactive) | 8.87 µM (inactive) |
| COc1ccc(C#CC(=O)O)c(OC)c1 | > 100 µM (inactive) | > 100 | > 100 µM (inactive) | – | > 100 µM (inactive) | > 100 µM (inactive) | > 100 µM (inactive) | > 100 µM (inactive) | > 100 µM (inactive) | > 100 µM (inactive) | – | > 100 µM (inactive) | > 100 µM (inactive) | > 100 µM (inactive) | > 100 µM (inactive) | > 100 µM (inactive) | – | > 100 µM (inactive) |
| CCOC(=O)C1=CN/C(=C(/C)C(=O)OC)SC1C(=O)OCC (centres undefined) | > 100 µM (inactive) | > 100 | – | > 100 µM (inactive) | 17.5 µM (inactive) | > 100 µM (inactive) | > 100 µM (inactive) | > 100 µM (inactive) | > 84.3 µM (inactive) | 68.9 µM (inactive) | > 100 µM (inactive) | > 100 µM (inactive) | > 100 µM (inactive) | > 100 µM (inactive) | 57.9 µM (inactive) | > 100 µM (inactive) | > 100 µM (inactive) | > 92.9 µM (inactive) |
| COCCCNc1c2ccccc2nc2ccccc12 | 2.59 µM (inactive) | 1.3 | 3.87 µM (inactive) | 3.56 µM (inactive) | 3.23 µM (inactive) | 2.01 µM (inactive) | 3.85 µM (inactive) | 2.92 µM (inactive) | 3.82 µM (inactive) | – | 3.75 µM (inactive) | 2.44 µM (inactive) | 3.24 µM (inactive) | 2.44 µM (inactive) | 2.64 µM (inactive) | 2.42 µM (inactive) | – | 5.62 µM (inactive) |
| C[C@]12C[C@H](O)[C@H]3[C@@H](CCC4=CC(=O)CC[C@@]43C)[C@@H]1CC[C@@H]2c1csc(-c2ccccc2)n1 | > 100 µM (inactive) | > 100 | – | > 68.5 µM (inactive) | 1.52 µM (inactive) | > 92.7 µM (inactive) | > 46.3 µM (inactive) | 4.57 µM (inactive) | 46.6 µM (inactive) | 3.56 µM (inactive) | > 53.8 µM (inactive) | > 100 µM (inactive) | 59.7 µM (inactive) | 39.5 µM (inactive) | 3.15 µM (inactive) | 3.48 µM (inactive) | 26.4 µM (inactive) | 26.1 µM (inactive) |
| Nc1n2nc(-c3ccccc3)sc2n[n+]1CC(=O)c1ccccc1 | – | 12.9 | – | 12.6 µM (inactive) | 3.09 µM (inactive) | 10.1 µM (inactive) | 2.72 µM (inactive) | 13.8 µM (inactive) | 14 µM (inactive) | 12.5 µM (inactive) | 24.4 µM (inactive) | 25.4 µM (inactive) | 27.6 µM (inactive) | 4.89 µM (inactive) | 30.4 µM (inactive) | 26.1 µM (inactive) | 26.3 µM (inactive) | 27.4 µM (inactive) |
| C=C(C)C[C@H](Sc1nc2ccccc2s1)[C@H](C)O | 39.4 µM (inactive) | 35.8 | 18.9 µM (inactive) | > 100 µM (inactive) | 33.7 µM (inactive) | 77.3 µM (inactive) | 37.2 µM (inactive) | 31 µM (inactive) | 33 µM (inactive) | 28.9 µM (inactive) | 42.3 µM (inactive) | 41.4 µM (inactive) | 45.4 µM (inactive) | 45.4 µM (inactive) | – | 32.4 µM (inactive) | – | 71.3 µM (inactive) |
| O=C1/C(=C\c2ccc(Cl)cc2Cl)Sc2scc(-c3ccc(O)c(O)c3)[n+]21 | 14.5 µM (inactive) | 14.8 | 8.77 µM (inactive) | 21.2 µM (inactive) | – | 16.3 µM (inactive) | 12.2 µM (inactive) | 11.6 µM (inactive) | 15.1 µM (inactive) | – | 30.3 µM (inactive) | 15.9 µM (inactive) | 15.9 µM (inactive) | 14 µM (inactive) | – | 18.8 µM (inactive) | 21.8 µM (inactive) | 12.7 µM (inactive) |
| N#Cc1nc(Cc2cccs2)oc1N | > 100 µM (inactive) | > 100 | > 100 µM (inactive) | > 100 µM (inactive) | > 100 µM (inactive) | > 100 µM (inactive) | > 100 µM (inactive) | – | – | > 100 µM (inactive) | > 100 µM (inactive) | > 100 µM (inactive) | > 100 µM (inactive) | > 100 µM (inactive) | – | > 100 µM (inactive) | > 100 µM (inactive) | > 100 µM (inactive) |
| CC(C)(C)c1c(C(C)(C)C)c(=O)c1=O | > 100 µM (inactive) | > 100 | > 100 µM (inactive) | – | > 100 µM (inactive) | > 100 µM (inactive) | > 100 µM (inactive) | > 100 µM (inactive) | > 100 µM (inactive) | > 100 µM (inactive) | > 100 µM (inactive) | > 100 µM (inactive) | > 100 µM (inactive) | > 100 µM (inactive) | – | > 100 µM (inactive) | > 100 µM (inactive) | > 100 µM (inactive) |
| COC(=O)CCC(NC(=O)OC(C)(C)C)C(=O)NC(Cc1ccc([N+](=O)[O-])cc1)C(=O)NC(CCC(=O)OC)C(=O)OC (centres undefined) (Boc-Glu(OMe)-[Phe(4-NO2)]-Glu(OMe)-OMe; configuration not given here) | > 100 µM (inactive) | > 100 | – | > 100 µM (inactive) | 35.4 µM (inactive) | > 100 µM (inactive) | > 100 µM (inactive) | > 100 µM (inactive) | > 100 µM (inactive) | 27 µM (inactive) | > 100 µM (inactive) | > 100 µM (inactive) | 51.9 µM (inactive) | > 100 µM (inactive) | > 100 µM (inactive) | 11.3 µM (inactive) | 33.1 µM (inactive) | > 100 µM (inactive) |
